Measured values taken from ChEMBL document CHEMBL3785036 (J Pharm Sci, 1974).

Experiments:
Assay type in all cases: ADME, organism-based
[1] = Drug excretion in human subject slow inactivator assessed as sum of isoniazid plus hydrazones, acetylisoniazid, isonicotinic acid and isonicotinuric acid level in urine at 681 mg, iv infused at constant rate 5.4 min measured 208.7 mins after start of drug injection by colorimetry; conditions: in vivo, 3.47833 h
[2] = Drug excretion in human subject rapid inactivator assessed as total isonicotinoyl compound level in urine at 670 mg, iv infused at constant rate 5.2min measured 516 mins after start of drug injection by colorimetry; conditions: in vivo
[3] = Drug excretion in human subject rapid inactivator assessed as sum of isoniazid plus hydrazones, acetylisoniazid, isonicotinic acid and isonicotinuric acid level in urine at 670 mg, iv infused at constant rate 5.2min measured 373 mins after start of drug injection by colorimetry; conditions: in vivo
[4] = Drug excretion in human subject slow inactivator assessed as total isonicotinoyl compound level in urine at 681 mg, iv infused at constant rate 5.4 min measured 613 mins after start of drug injection by colorimetry; conditions: in vivo
[5] = Drug excretion in human subject rapid inactivator assessed as sum of isoniazid plus hydrazones, acetylisoniazid, isonicotinic acid and isonicotinuric acid level in urine at 670 mg, iv infused at constant rate 5.2min measured 296 mins after start of drug injection by colorimetry; conditions: in vivo
[6] = Drug excretion in human subject rapid inactivator assessed as total isonicotinoyl compound level in urine at 670 mg, iv infused at constant rate 5.2min measured 158 mins after start of drug injection by colorimetry; conditions: in vivo
[7] = Drug excretion in human subject slow inactivator assessed as sum of isoniazid plus hydrazones, acetylisoniazid, isonicotinic acid and isonicotinuric acid level in urine at 681 mg, iv infused at constant rate 5.4 min measured 677 mins after start of drug injection by colorimetry; conditions: in vivo
[8] = Drug excretion in human subject rapid inactivator assessed as total isonicotinoyl compound level in urine at 670 mg, iv infused at constant rate 5.2min measured 335 mins after start of drug injection by colorimetry; conditions: in vivo
[9] = Drug excretion in human subject slow inactivator assessed as sum of isoniazid plus hydrazones, acetylisoniazid, isonicotinic acid and isonicotinuric acid level in urine at 681 mg, iv infused at constant rate 5.4 min measured 396 mins after start of drug injection by colorimetry; conditions: in vivo, 6.6 h
[10] = Drug excretion in human subject rapid inactivator assessed as total isonicotinoyl compound level in urine at 670 mg, iv infused at constant rate 5.2min measured 195 mins after start of drug injection by colorimetry; conditions: in vivo, 3.25 h
[11] = Drug excretion in human subject rapid inactivator assessed as sum of isoniazid plus hydrazones, acetylisoniazid, isonicotinic acid and isonicotinuric acid level in urine at 670 mg, iv infused at constant rate 5.2min measured 259 mins after start of drug injection by colorimetry; conditions: in vivo
[12] = Drug excretion in human subject slow inactivator assessed as total isonicotinoyl compound level in urine at 681 mg, iv infused at constant rate 5.4 min measured 339.3 mins after start of drug injection by colorimetry; conditions: in vivo, 5.655 h
[13] = Drug excretion in human subject rapid inactivator assessed as total isonicotinoyl compound level in urine at 670 mg, iv infused at constant rate 5.2min measured 373 mins after start of drug injection by colorimetry; conditions: in vivo
[14] = Drug excretion in human subject rapid inactivator assessed as total isonicotinoyl compound level in urine at 670 mg, iv infused at constant rate 5.2min measured 94 mins after start of drug injection by colorimetry; conditions: in vivo
[15] = Drug excretion in human subject slow inactivator assessed as total isonicotinoyl compound level in urine at 681 mg, iv infused at constant rate 5.4 min measured 208.7 mins after start of drug injection by colorimetry; conditions: in vivo, 3.47833 h
[16] = Drug excretion in human subject slow inactivator assessed as sum of isoniazid plus hydrazones, acetylisoniazid, isonicotinic acid and isonicotinuric acid level in urine at 681 mg, iv infused at constant rate 5.4 min measured 276.3 mins after start of drug injection by colorimetry; conditions: in vivo, 4.605 h
[17] = Drug excretion in human subject rapid inactivator assessed as sum of isoniazid plus hydrazones, acetylisoniazid, isonicotinic acid and isonicotinuric acid level in urine at 670 mg, iv infused at constant rate 5.2min measured 426 mins after start of drug injection by colorimetry; conditions: in vivo
[18] = Drug metabolism in human slow inactivators assessed as excretion of isonicotinuric acid in urine at 1 g, iv by colorimetry; conditions: in vivo
[19] = Drug excretion in human subject slow inactivator assessed as total isonicotinoyl compound level in urine at 681 mg, iv infused at constant rate 5.4 min measured 586 mins after start of drug injection by colorimetry; conditions: in vivo
[20] = Drug excretion in human subject rapid inactivator assessed as total isonicotinoyl compound level in urine at 670 mg, iv infused at constant rate 5.2min measured 296 mins after start of drug injection by colorimetry; conditions: in vivo
[21] = Drug metabolism in human rapid inactivators assessed as excretion of acetylisoniazid in urine at 1 g, iv by colorimetry; conditions: in vivo
[22] = Drug excretion in human subject slow inactivator assessed as total isonicotinoyl compound level in urine at 681 mg, iv infused at constant rate 5.4 min measured 524 mins after start of drug injection by colorimetry; conditions: in vivo
[23] = Drug excretion in human subject slow inactivator assessed as total isonicotinoyl compound level in urine at 681 mg, iv infused at constant rate 5.4 min measured 243.5 mins after start of drug injection by colorimetry; conditions: in vivo
[24] = Drug excretion in human subject slow inactivator assessed as sum of isoniazid plus hydrazones, acetylisoniazid, isonicotinic acid and isonicotinuric acid level in urine at 681 mg, iv infused at constant rate 5.4 min measured 59.1 mins after start of drug injection by colorimetry; conditions: in vivo, 0.985 h
[25] = Drug excretion in human slow inactivators urine assessed as acetylisoniazid level at 1 g, iv by colorimetry; conditions: in vivo
[26] = Drug excretion in human rapid inactivators urine assessed as total isonicotinoyl compounds at 1 g, iv by colorimetry; conditions: in vivo
[27] = Drug excretion in human subject slow inactivator assessed as total isonicotinoyl compound level in urine at 681 mg, iv infused at constant rate 5.4 min measured 496 mins after start of drug injection by colorimetry; conditions: in vivo
[28] = Drug excretion in human subject slow inactivator assessed as sum of isoniazid plus hydrazones, acetylisoniazid, isonicotinic acid and isonicotinuric acid level in urine at 681 mg, iv infused at constant rate 5.4 min measured 150 mins after start of drug injection by colorimetry; conditions: in vivo, 2.5 h
[29] = Drug excretion in human subject slow inactivator assessed as sum of isoniazid plus hydrazones, acetylisoniazid, isonicotinic acid and isonicotinuric acid level in urine at 681 mg, iv infused at constant rate 5.4 min measured 648 mins after start of drug injection by colorimetry; conditions: in vivo
[30] = Drug excretion in human slow inactivators urine at 1 g, iv by colorimetry; conditions: in vivo
[31] = Drug excretion in human subject rapid inactivator assessed as total isonicotinoyl compound level in urine at 670 mg, iv infused at constant rate 5.2min measured 426 mins after start of drug injection by colorimetry; conditions: in vivo, 7.1 h
[32] = Drug excretion in human subject slow inactivator assessed as sum of isoniazid plus hydrazones, acetylisoniazid, isonicotinic acid and isonicotinuric acid level in urine at 681 mg, iv infused at constant rate 5.4 min measured 710 mins after start of drug injection by colorimetry; conditions: in vivo

NNC(=O)c1ccncc1 [ISONIAZID]
Drug excretion [1]: 28.41 mg
Drug excretion [2]: 17 mg
Drug excretion [3]: 28 mg
Drug excretion [4]: 12.2 mg
Drug excretion [5]: 39.4 mg
Drug excretion [6]: 51.7 mg
Drug excretion [7]: 11.396 mg
Drug excretion [8]: 29.6 mg
Drug excretion [9]: 17.18 mg
Drug excretion [10]: 59.9 mg
Drug excretion [11]: 40.5 mg
Drug excretion [12]: 32 mg
Drug excretion [13]: 28.7 mg
Drug excretion [14]: 51.8 mg
Drug excretion [15]: 27.1 mg
Drug excretion [16]: 32.59 mg
Drug excretion [17]: 16.5 mg
Drug metabolism [18]: 14.2 %molar
Drug excretion [19]: 12.7 mg
Drug excretion [20]: 42.1 mg
Drug metabolism [21]: 43.8 %molar
Drug excretion [22]: 10.4 mg
Drug excretion [23]: 36.2 mg
Drug excretion [24]: 30.44 mg
Drug excretion [25]: 97%
Drug excretion [26]: 98.8%
Drug excretion [27]: 13.5 mg
Drug excretion [28]: 38.71 mg
Drug excretion [29]: 12.82 mg
Drug excretion [30]: 12.7 %molar
Drug excretion [31]: 17.1 mg
Drug excretion [32]: 10.68 mg
